The test system of experiment [1] is primary human fibroblasts derived from IPF patients (LL29 cells). The experiment can be described thus: Inhibition of the fibrotic process: αSMA staining in TGF-β1 treated LL29 fibroblasts. Particulars: Homo sapiens, Fibroblast; for EC50: 96 h, TGF-β1 20 ng/mL, 4 days, % αSMA positive cells; for inhibition at 10 µM: given for EC50 of >10 μM, TGF-β1, αSMA, read-out: percent inhibition at 10 μM. It counts as cell-based. The procedure, abridged:
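IPF patient-derived LL29 fibroblasts in 1% FBS medium got compound (11-point, 10 μM to 1.87 nM, 0.1% DMSO) plus TGF-β1 20 ng/mL, 4 days at 37° C. αSMA-positive live cells (SYTOX-excluded) were imaged, normalized to TGF-β1 controls and fitted for EC50; % inhibition at 10 μM given when EC50 >10 μM.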

Experiment [2] has as its system Wnt activity (Sp5-Luc reporter gene, SW480 colon carcinoma cells). The experiment can be described thus: Screening assay for Wnt activity: Sp5-Luc reporter gene assay in SW480 cells. As to conditions: Homo sapiens; for EC50: overnight incubation; for inhibition at 10 µM: given for EC50 of >10 μM, read-out: percent inhibition at 10 μM. The format is cell-based, human. In outline:
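SW480 cells stably transduced with a luciferase reporter driven by an Sp5 promoter of eight TCF/LEF sites were plated at 4,000 cells/well in 1% FBS medium. They were exposed overnight at 37° C to a 10-point 1:3 dilution series from 10 μM (0.1% DMSO). Luminescence was normalized to DMSO for four-parameter EC50, or percent inhibition at 10 μM.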

The test system of the next experiment is SW480 colon cancer cells. The experiment can be described thus: Cell viability assay (CellTiter-Blue) in SW480 colon cancer cells. Particulars: Homo sapiens; for EC50: 96 h, four days, CellTiter-Blue; for inhibition at 10 µM: given for EC50 of >10 μM, read-out: percent inhibition at 10 μM. It counts as cell-based, human. In outline: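 SW480 colon cancer cells (~2×10^3/well) exposed to 8-point 1:3 dilutions from 10 μM to 0.0045 μM for four days at 37 °C/5% CO2. Viability read by resazurin (CellTiter-Blue) fluorescence after ~3 h, Ex 560/Em 590 nm. EC50 from non-linear regression; percent inhibition at 10 μM given when EC50 >10 μM.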
In general terms: The colour change of resazurin is a common sign of viable cells or microbes.

Usually EC50 stands for the concentration giving half of the maximal effect. For `CC(C)(C)CC(=O)Nc1cncc(-c2cnc3[nH]nc(-c4cc5c(-c6ccccn6)cccc5[nH]4)c3c2)c1` [Compound 133, 3,3-Dimethyl-N-(5-(3-(4-(pyridin-2-yl)-1H-indol-2-yl)-1H-pyrazolo[3,4-b]pyridin-5-yl)pyridin-3-yl)butanamide], the EC50 was 0.753 µM in experiment [1], 1.01 µM in experiment [2] and 3.25 µM in the experiment on SW480 colon cancer cells.
For the compound `c1ccc(CNCc2cncc(-c3cnc4[nH]nc(-c5cc6c(-c7ccncc7)cccc6[nH]5)c4c3)c2)cc1` [Compound 116, N-Benzyl-1-(5-(3-(4-(pyridin-4-yl)-1H-indol-2-yl)-1H-pyrazolo[3,4-b]pyridin-5-yl)pyridin-3-yl)methanamine], the 50% effective concentration (EC50) in experiment [1] was 2.53 µM; in experiment [2], 3.82 µM; in the experiment on SW480 colon cancer cells, 3.59 µM.
Usually inhibition stands for the share of the control response that was lost under treatment. `Cc1ccncc1-c1cnc2[nH]nc(-c3cc4c(-c5ccc(F)cc5)cccc4[nH]3)c2c1` [Compound 27, 3-(4-(4-Fluorophenyl)-1H-indol-2-yl)-5-(4-methylpyridin-3-yl)-1H-pyrazolo[3,4-b]pyridine]: the EC50 in experiment [1] is 1.61 µM; in experiment [2], 3.53 µM; with SW480 colon cancer cells, greater than 10 µM. Also, the inhibition at 10 µM with SW480 colon cancer cells is 13.9%.
Take `CS(=O)(=O)NCc1cc(F)cc(-c2cccc3[nH]c(-c4n[nH]c5ncc(-c6cncc(N)c6)cc45)cc23)c1` [Compound 453, N-(3-(2-(5-(5-Aminopyridin-3-yl)-1H-pyrazolo[3,4-b]pyridin-3-yl)-1H-indol-4-yl)-5-fluorobenzyl)methanesulfonamide]: the values for the 50% effective concentration (EC50) (in experiment [1]; in experiment [2]; in the experiment with SW480 colon cancer cells) were 0.37 µM, 0.157 µM and 0.997 µM, respectively.
As to `CCCCC(=O)Nc1cncc(-c2cnc3[nH]nc(-c4cc5c(N6CCCCC6)cccc5[nH]4)c3c2)c1` [Compound 163, N-(5-(3-(4-(Piperidin-1-yl)-1H-indol-2-yl)-1H-pyrazolo[3,4-b]pyridin-5-yl)pyridin-3-yl)pentanamide], the half-maximal effective concentration (EC50) in experiment [1] is 8.11 µM; in experiment [2], 3.39 µM; in the experiment with SW480 colon cancer cells, greater than 10 µM. Besides, the inhibition at 10 µM with SW480 colon cancer cells amounted to 38%.
Consider `c1ccc(COc2cncc(-c3cnc4[nH]nc(-c5cc6ncccc6[nH]5)c4c3)c2)cc1` [Compound 1006, 5-(5-(Benzyloxy)pyridin-3-yl)-3-(1H-pyrrolo[3,2-b]pyridin-2-yl)-1H-pyrazolo[3,4-b]pyridine], for which the half-maximal effective concentration (EC50) is greater than 10 µM in experiment [1], 0.714 µM in experiment [2] and 1.44 µM with SW480 colon cancer cells. Further, the inhibition at 10 µM in experiment [1] was found to be 24.8%.
Regarding `CC(C)Nc1cncc(-c2cnc3[nH]nc(-c4cc5c(-c6cccnc6)cccc5[nH]4)c3c2)c1` [Compound 81, N-Isopropyl-5-(3-(4-(pyridin-3-yl)-1H-indol-2-yl)-1H-pyrazolo[3,4-b]pyridin-5-yl)pyridin-3-amine], the concentration for a half-maximal effect (EC50) in experiment [1] was determined as 1.41 µM; in experiment [2], 0.45 µM; in the experiment with SW480 colon cancer cells it was 3.7 µM.
Take `O=C(Nc1cncc(-c2cnc3[nH]nc(-c4cc5c(-c6ccccn6)cccc5[nH]4)c3c2)c1)c1ccccc1` [Compound 128, N-(5-(3-(4-(Pyridin-2-yl)-1H-indol-2-yl)-1H-pyrazolo[3,4-b]pyridin-5-yl)pyridin-3-yl)benzamide]: the half-maximal effective concentration (EC50) in experiment [1] came to 0.468 µM; in experiment [2] it was 0.39 µM; with SW480 colon cancer cells, 0.701 µM.
Turning to `CN(C)CCNc1cc(F)cc(-c2cccc3[nH]c(-c4n[nH]c5ncc(-c6cncc(OC7CCCCC7)c6)cc45)cc23)c1` [Compound 785, N^1-(3-(2-(5-(5-(Cyclohexyloxy)pyridin-3-yl)-1H-pyrazolo[3,4-b]pyridin-3-yl)-1H-indol-4-yl)-5-fluorophenyl)-N^2,N^2-dimethylethane-1,2-diamine], the EC50 in experiment [1] worked out at 1.24 µM; in experiment [2], 2.95 µM; in the experiment on SW480 colon cancer cells, 1.64 µM.
As for `O=C(Nc1cncc(-c2cnc3[nH]nc(-c4cc5c(-c6ccc(F)cc6)cccc5[nH]4)c3c2)c1)C1CCC1` [Compound 41, N-(5-(3-(4-(4-Fluorophenyl)-1H-indol-2-yl)-1H-pyrazolo[3,4-b]pyridin-5-yl)pyridin-3-yl)cyclobutanecarboxamide], the EC50 was found to be 1.16 µM in experiment [1], 0.543 µM in experiment [2] and 5.1 µM in the experiment on SW480 colon cancer cells.
Take `c1cncc(-c2cccc3[nH]c(-c4n[nH]c5ncc(-c6cncc(CN7CCCCC7)c6)cc45)cc23)c1` [Compound 84, 5-(5-(Piperidin-1-ylmethyl)pyridin-3-yl)-3-(4-(pyridin-3-yl)-1H-indol-2-yl)-1H-pyrazolo[3,4-b]pyridine]: the half-maximal effective concentration (EC50) in experiment [1] is 5.97 µM; in experiment [2], greater than 10 µM; with SW480 colon cancer cells it was 8.47 µM. For the same compound, the inhibition at 10 µM in experiment [2] stood at 48.5%.
For the compound `CC(C)(C)C(=O)Nc1cncc(-c2cnc3[nH]nc(-c4cc5c(-c6ccc(F)cc6)cccc5[nH]4)c3c2)c1` [Compound 30, N-(5-(3-(4-(4-Fluorophenyl)-1H-indol-2-yl)-1H-pyrazolo[3,4-b]pyridin-5-yl)pyridin-3-yl)pivalamide], the EC50 was 4.16 µM in experiment [1], 2.05 µM in experiment [2] and greater than 10 µM in the experiment on SW480 colon cancer cells. Besides, the inhibition at 10 µM in the experiment on SW480 colon cancer cells stood at 13.9%.
Consider `CC(C)(C)C(=O)Nc1cncc(-c2cnc3[nH]nc(-c4cc5c(-c6ccoc6)cccc5[nH]4)c3c2)c1` [Compound 290, N-(5-(3-(4-(Furan-3-yl)-1H-indol-2-yl)-1H-pyrazolo[3,4-b]pyridin-5-yl)pyridin-3-yl)pivalamide], for which the EC50 (in experiment [1]; in experiment [2]; in the experiment on SW480 colon cancer cells) was greater than 10 µM throughout. For the same compound, the inhibition at 10 µM in experiment [1] came out at 43.3%; in experiment [2], 53%; in the experiment on SW480 colon cancer cells, 35.1%.
In the case of `O=C(CC1CCNCC1)Nc1cncc(-c2cnc3[nH]nc(-c4cc5c(-c6ccccn6)cccc5[nH]4)c3c2)c1` [Compound 595, 2-(Piperidin-4-yl)-N-(5-(3-(4-(pyridin-2-yl)-1H-indol-2-yl)-1H-pyrazolo[3,4-b]pyridin-5-yl)pyridin-3-yl)acetamide], the EC50 in experiment [1] was 5.61 µM; in experiment [2], 3.71 µM; in the experiment with SW480 colon cancer cells it was greater than 10 µM. The inhibition at 10 µM in the experiment on SW480 colon cancer cells worked out at 11.3%.
Turning to `CC(C)(C)CC(=O)Nc1cncc(-c2cnc3[nH]nc(-c4cc5ccccc5[nH]4)c3c2)c1` [Compound 242, N-(5-(3-(1H-Indol-2-yl)-1H-pyrazolo[3,4-b]pyridin-5-yl)pyridin-3-yl)-3,3-dimethylbutanamide], the EC50 in experiment [1] was greater than 10 µM; in experiment [2], 1.64 µM; with SW480 colon cancer cells, greater than 10 µM. Also, the inhibition at 10 µM in experiment [1] is 0%; with SW480 colon cancer cells it was 14.3%.
As for `Cc1ccncc1-c1cnc2[nH]nc(-c3cc4c(-c5ccncc5)cccc4[nH]3)c2c1` [Compound 99, 5-(4-Methylpyridin-3-yl)-3-(4-(pyridin-4-yl)-1H-indol-2-yl)-1H-pyrazolo[3,4-b]pyridine], the EC50 is 2.61 µM in experiment [1], greater than 10 µM in experiment [2] and greater than 10 µM in the experiment with SW480 colon cancer cells. The inhibition at 10 µM in experiment [2] worked out at 69.3%; in the experiment with SW480 colon cancer cells it was 36.8%.
Consider `CCCC(=O)Nc1cncc(-c2cnc3[nH]nc(-c4cc5ccccc5[nH]4)c3c2)c1` [Compound 243, N-(5-(3-(1H-Indol-2-yl)-1H-pyrazolo[3,4-b]pyridin-5-yl)pyridin-3-yl) butyramide], for which the EC50 in experiment [1] is 0.21 µM; in experiment [2] it was 0.521 µM; in the experiment on SW480 colon cancer cells it was 0.632 µM.

The record behind these values is patent publication US20180214428A1, “3-(1H-INDOL-2-YL)-1H-PYRAZOLO[3,4-B]PYRIDINES AND THERAPEUTIC USES THEREOF” (Samumed, LLC, priority 2015, published 2018).
